In the NIST ThermoML archive (doi:10.1016/j.jct.2016.09.013):
Numbers after ± are expanded uncertainties.

Details: Liquid; for viscosity: Concentric cylinders viscometry

CCCCn1cc[n+](C)c1.COP(=O)([O-])OC [1-butyl-3-methyl-1H-imidazolium dimethylphosphate]
viscosity (293.15 K, 101.33 kPa): 760.4 ± 29 mPa·s | mass density (293.15 K, 101.33 kPa, Vibrating tube method): 1167.3 ± 1.5 kg/m3 | viscosity (303.15 K, 101.33 kPa): 369.3 ± 11 mPa·s | mass density (303.15 K, 101.33 kPa, Vibrating tube method): 1160.2 ± 1.5 kg/m3 | mass density (311.4 K, 10000 kPa, Bellows volumetry): 1159.3 ± 1.8 kg/m3 | mass density (311.4 K, 20000 kPa, Bellows volumetry): 1163.7 ± 1.8 kg/m3 | mass density (311.4 K, 30000 kPa, Bellows volumetry): 1168.1 ± 1.8 kg/m3 | mass density (311.4 K, 40000 kPa, Bellows volumetry): 1172.2 ± 1.8 kg/m3 | mass density (311.4 K, 50000 kPa, Bellows volumetry): 1176.4 ± 1.8 kg/m3 | mass density (311.4 K, 60000 kPa, Bellows volumetry): 1180.3 ± 1.8 kg/m3 | mass density (311.4 K, 70000 kPa, Bellows volumetry): 1183.9 ± 1.8 kg/m3 | mass density (311.4 K, 80000 kPa, Bellows volumetry): 1187.7 ± 1.8 kg/m3 | mass density (311.4 K, 90000 kPa, Bellows volumetry): 1191.3 ± 1.8 kg/m3 | mass density (311.4 K, 100000 kPa, Bellows volumetry): 1194.7 ± 1.8 kg/m3 | mass density (311.4 K, 110000 kPa, Bellows volumetry): 1198.1 ± 1.8 kg/m3 | mass density (311.4 K, 120000 kPa, Bellows volumetry): 1201.4 ± 1.8 kg/m3 | mass density (311.4 K, 130000 kPa, Bellows volumetry): 1204.7 ± 1.9 kg/m3 | mass density (311.4 K, 140000 kPa, Bellows volumetry): 1207.7 ± 1.9 kg/m3 | mass density (311.4 K, 150000 kPa, Bellows volumetry): 1210.8 ± 1.9 kg/m3 | mass density (311.4 K, 160000 kPa, Bellows volumetry): 1213.7 ± 1.9 kg/m3 | mass density (311.4 K, 170000 kPa, Bellows volumetry): 1216.7 ± 1.9 kg/m3 | mass density (311.4 K, 180000 kPa, Bellows volumetry): 1219.6 ± 1.9 kg/m3 | mass density (311.4 K, 190000 kPa, Bellows volumetry): 1222.5 ± 1.9 kg/m3 | mass density (311.4 K, 200000 kPa, Bellows volumetry): 1225.3 ± 1.9 kg/m3 | viscosity (313.15 K, 101.33 kPa): 198.8 ± 4.2 mPa·s | mass density (313.15 K, 101.33 kPa, Vibrating tube method): 1153.4 ± 1.5 kg/m3 | viscosity (323.15 K, 101.33 kPa): 116.4 ± 1.9 mPa·s | mass density (323.15 K, 101.33 kPa, Vibrating tube method): 1146.8 ± 1.5 kg/m3 | mass density (331.3 K, 10000 kPa, Bellows volumetry): 1146.1 ± 1.8 kg/m3 | mass density (331.3 K, 20000 kPa, Bellows volumetry): 1150.8 ± 1.8 kg/m3 | mass density (331.3 K, 30000 kPa, Bellows volumetry): 1155.4 ± 1.8 kg/m3 | mass density (331.3 K, 40000 kPa, Bellows volumetry): 1159.8 ± 1.8 kg/m3 | mass density (331.3 K, 50000 kPa, Bellows volumetry): 1164.2 ± 1.8 kg/m3 | mass density (331.3 K, 60000 kPa, Bellows volumetry): 1168.3 ± 1.8 kg/m3 | mass density (331.3 K, 70000 kPa, Bellows volumetry): 1172.1 ± 1.8 kg/m3 | mass density (331.3 K, 80000 kPa, Bellows volumetry): 1176 ± 1.8 kg/m3 | mass density (331.3 K, 90000 kPa, Bellows volumetry): 1179.6 ± 1.8 kg/m3 | mass density (331.3 K, 100000 kPa, Bellows volumetry): 1183.1 ± 1.8 kg/m3 | mass density (331.3 K, 110000 kPa, Bellows volumetry): 1186.6 ± 1.8 kg/m3 | mass density (331.3 K, 120000 kPa, Bellows volumetry): 1190.1 ± 1.8 kg/m3 | mass density (331.3 K, 130000 kPa, Bellows volumetry): 1193.4 ± 1.8 kg/m3 | mass density (331.3 K, 140000 kPa, Bellows volumetry): 1196.6 ± 1.8 kg/m3 | mass density (331.3 K, 150000 kPa, Bellows volumetry): 1199.8 ± 1.8 kg/m3 | mass density (331.3 K, 160000 kPa, Bellows volumetry): 1202.9 ± 1.8 kg/m3 | mass density (331.3 K, 170000 kPa, Bellows volumetry): 1205.9 ± 1.9 kg/m3 | mass density (331.3 K, 180000 kPa, Bellows volumetry): 1208.9 ± 1.9 kg/m3 | mass density (331.3 K, 190000 kPa, Bellows volumetry): 1212.6 ± 1.9 kg/m3 | mass density (331.3 K, 200000 kPa, Bellows volumetry): 1214.8 ± 1.9 kg/m3 | viscosity (333.15 K, 101.33 kPa): 72.97 ± 0.98 mPa·s | mass density (333.15 K, 101.33 kPa, Vibrating tube method): 1140.3 ± 1.4 kg/m3 | viscosity (343.15 K, 101.33 kPa): 48.45 ± 0.62 mPa·s | mass density (343.15 K, 101.33 kPa, Vibrating tube method): 1133.7 ± 1.4 kg/m3 | mass density (351.6 K, 10000 kPa, Bellows volumetry): 1133.7 ± 1.8 kg/m3 | mass density (351.6 K, 20000 kPa, Bellows volumetry): 1138.4 ± 1.8 kg/m3 | mass density (351.6 K, 30000 kPa, Bellows volumetry): 1143.3 ± 1.8 kg/m3 | mass density (351.6 K, 40000 kPa, Bellows volumetry): 1147.9 ± 1.8 kg/m3 | mass density (351.6 K, 50000 kPa, Bellows volumetry): 1152.4 ± 1.8 kg/m3 | mass density (351.6 K, 60000 kPa, Bellows volumetry): 1156.7 ± 1.8 kg/m3 | mass density (351.6 K, 70000 kPa, Bellows volumetry): 1160.9 ± 1.8 kg/m3 | mass density (351.6 K, 80000 kPa, Bellows volumetry): 1164.9 ± 1.8 kg/m3 | mass density (351.6 K, 90000 kPa, Bellows volumetry): 1168.6 ± 1.8 kg/m3 | mass density (351.6 K, 100000 kPa, Bellows volumetry): 1172.3 ± 1.8 kg/m3 | mass density (351.6 K, 110000 kPa, Bellows volumetry): 1175.9 ± 1.8 kg/m3 | mass density (351.6 K, 120000 kPa, Bellows volumetry): 1179.7 ± 1.8 kg/m3 | mass density (351.6 K, 130000 kPa, Bellows volumetry): 1183.1 ± 1.8 kg/m3 | mass density (351.6 K, 140000 kPa, Bellows volumetry): 1186.4 ± 1.8 kg/m3 | mass density (351.6 K, 150000 kPa, Bellows volumetry): 1189.6 ± 1.8 kg/m3 | mass density (351.6 K, 160000 kPa, Bellows volumetry): 1192.8 ± 1.8 kg/m3 | mass density (351.6 K, 170000 kPa, Bellows volumetry): 1196.1 ± 1.8 kg/m3 | mass density (351.6 K, 180000 kPa, Bellows volumetry): 1199.1 ± 1.8 kg/m3 | mass density (351.6 K, 190000 kPa, Bellows volumetry): 1202.1 ± 1.8 kg/m3 | mass density (351.6 K, 200000 kPa, Bellows volumetry): 1205.1 ± 1.9 kg/m3 | viscosity (353.15 K, 101.33 kPa): 33.76 ± 0.43 mPa·s | mass density (353.15 K, 101.33 kPa, Vibrating tube method): 1127.2 ± 1.4 kg/m3 | viscosity (363.15 K, 101.33 kPa): 24.48 ± 0.31 mPa·s | mass density (363.15 K, 101.33 kPa, Vibrating tube method): 1120.7 ± 1.4 kg/m3 | mass density (371.6 K, 10000 kPa, Bellows volumetry): 1120.8 ± 1.8 kg/m3 | mass density (371.6 K, 20000 kPa, Bellows volumetry): 1126.1 ± 1.8 kg/m3 | mass density (371.6 K, 30000 kPa, Bellows volumetry): 1131.3 ± 1.8 kg/m3 | mass density (371.6 K, 40000 kPa, Bellows volumetry): 1136.2 ± 1.8 kg/m3 | mass density (371.6 K, 50000 kPa, Bellows volumetry): 1140.9 ± 1.8 kg/m3 | mass density (371.6 K, 60000 kPa, Bellows volumetry): 1145.4 ± 1.8 kg/m3 | mass density (371.6 K, 70000 kPa, Bellows volumetry): 1149.7 ± 1.8 kg/m3 | mass density (371.6 K, 80000 kPa, Bellows volumetry): 1153.9 ± 1.8 kg/m3 | mass density (371.6 K, 90000 kPa, Bellows volumetry): 1157.9 ± 1.8 kg/m3 | mass density (371.6 K, 100000 kPa, Bellows volumetry): 1161.8 ± 1.8 kg/m3 | mass density (371.6 K, 110000 kPa, Bellows volumetry): 1165.7 ± 1.8 kg/m3 | mass density (371.6 K, 120000 kPa, Bellows volumetry): 1169.4 ± 1.8 kg/m3 | mass density (371.6 K, 130000 kPa, Bellows volumetry): 1173.1 ± 1.8 kg/m3 | mass density (371.6 K, 140000 kPa, Bellows volumetry): 1176.4 ± 1.8 kg/m3 | mass density (371.6 K, 150000 kPa, Bellows volumetry): 1179.7 ± 1.8 kg/m3 | mass density (371.6 K, 160000 kPa, Bellows volumetry): 1183 ± 1.8 kg/m3 | mass density (371.6 K, 170000 kPa, Bellows volumetry): 1186.3 ± 1.8 kg/m3 | mass density (371.6 K, 180000 kPa, Bellows volumetry): 1189.4 ± 1.8 kg/m3 | mass density (371.6 K, 190000 kPa, Bellows volumetry): 1192.5 ± 1.8 kg/m3 | mass density (371.6 K, 200000 kPa, Bellows volumetry): 1195.6 ± 1.8 kg/m3 | viscosity (373.15 K, 101.33 kPa): 18.37 ± 0.24 mPa·s | mass density (373.15 K, 101.33 kPa, Vibrating tube method): 1114.2 ± 1.4 kg/m3
